Tests used:
Type in all cases: biochemical
FXa = FXa (Homo sapiens, UniProt P00742); assay: Determination of selectivity: FXa inhibition, chromogenic substrate S2765 assay; conditions: fold selectivity for FXIIa over FXa
In short: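 Human FXa (5 nM) preincubated with compound (top 500 μM, 5% DMSO) 10 min at 37 °C in 50 mM Tris, 137 mM NaCl pH 7.4, then S2765 ([…]) added; A405 kinetics over 3 h at 37 °C. IC50 from initial rates, converted to Ki via Cheng-Prusoff.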

FXIIa = molecular target: T1, FXIIa (Homo sapiens, UniProt P00748); assay: Determination of Factor XIIa inhibition, chromogenic substrate S-2302 assay; conditions: human FXIIa alpha
T1 sequence (P00748 373-615 limits assumed): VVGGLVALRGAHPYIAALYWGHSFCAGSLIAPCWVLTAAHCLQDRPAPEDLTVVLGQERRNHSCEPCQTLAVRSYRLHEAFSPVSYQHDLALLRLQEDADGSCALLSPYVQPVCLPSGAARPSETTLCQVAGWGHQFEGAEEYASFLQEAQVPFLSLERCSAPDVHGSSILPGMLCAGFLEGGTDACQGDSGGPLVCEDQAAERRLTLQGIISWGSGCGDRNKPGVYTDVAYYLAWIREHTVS
T1 sequence (P00748 20-372 partner limits assumed): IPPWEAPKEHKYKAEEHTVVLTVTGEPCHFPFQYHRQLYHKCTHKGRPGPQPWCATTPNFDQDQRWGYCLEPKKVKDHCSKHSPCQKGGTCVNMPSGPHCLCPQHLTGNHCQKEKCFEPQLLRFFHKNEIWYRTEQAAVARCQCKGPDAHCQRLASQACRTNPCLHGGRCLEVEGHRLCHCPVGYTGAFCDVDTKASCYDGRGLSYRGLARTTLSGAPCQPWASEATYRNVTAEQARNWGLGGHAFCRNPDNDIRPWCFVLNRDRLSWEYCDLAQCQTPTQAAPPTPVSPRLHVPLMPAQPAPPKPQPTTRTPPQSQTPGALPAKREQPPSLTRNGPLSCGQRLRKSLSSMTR
In short: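 FXIIa (10 nM) preincubated with compound 10 min at 37° C. in 50 mM Tris, 137 mM NaCl pH 7.4, 5% DMSO, top concentration 500 μM, then S-2302 added ([…]). Absorbance at 405 nm read kinetically for 3 h; IC50 from initial rates, converted to Ki by Cheng-Prusoff.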

thrombin = molecular target: T2, thrombin (Homo sapiens, UniProt P00734); assay: Determination of selectivity: thrombin inhibition, chromogenic substrate GPR assay; conditions: fold selectivity for FXIIa over thrombin
T2 construct: FXa (5 nM) and thrombin (5 nM)
In short: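 Thrombin (5 nM) preincubated with compound 10 min at 37 °C in 50 mM Tris, 137 mM NaCl, pH 7.4, 5% DMSO, then GPR substrate ([…]) added. Absorbance at 405 nm read kinetically for 3 h; IC50 from initial rates, converted to Ki via Ki=IC50/(1+[S]/Km).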

Chain of FXa (P00742 235-488 limits assumed): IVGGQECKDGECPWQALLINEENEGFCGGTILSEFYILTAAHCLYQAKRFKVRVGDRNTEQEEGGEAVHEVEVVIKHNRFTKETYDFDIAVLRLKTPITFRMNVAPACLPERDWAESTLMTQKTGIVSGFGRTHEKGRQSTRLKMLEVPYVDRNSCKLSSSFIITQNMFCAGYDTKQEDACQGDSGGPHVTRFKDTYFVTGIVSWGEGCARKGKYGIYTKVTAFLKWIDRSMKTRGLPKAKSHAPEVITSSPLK
Chain of FXa (P00742 41-179 partner limits assumed): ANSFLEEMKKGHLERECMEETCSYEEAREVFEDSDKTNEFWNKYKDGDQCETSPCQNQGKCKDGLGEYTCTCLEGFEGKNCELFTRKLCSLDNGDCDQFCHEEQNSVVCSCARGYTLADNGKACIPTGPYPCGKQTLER

| SMILES | FXa (human)/FXIIa alpha (human) (FXa) | Ki (FXIIa) | Thrombin (human)/FXIIa alpha (human) (thrombin) |
| --- | --- | --- | --- |
| COc1ccc(C[C@@H]2C[C@@H](C(=O)NCc3ccc4c(c3)nnn4C)N(C(=O)C3NCCc4cc(O)ccc43)C2)cc1 (stereo partly drawn) [Example M05429] | ∘∘ | > 2 µM | ++ (fold selectivity value of 10 to 100) |
| COc1ccc(C[C@@H]2C[C@@H](C(=O)NCc3ccc4c(c3)nnn4C)N(C(=O)C3NCCc4cc(Cl)ccc43)C2)cc1 (stereo partly drawn) [Example M05430] | ∘∘∘ | 0.2 to 2 µM | +++ (fold selectivity values greater than 100) |
| COc1ccc(C[C@@H]2C[C@@H](C(=O)NCc3ccc4c(c3)nnn4C)N(C(=O)C3NCCc4cc(Cl)ccc43)C2)cc1 (stereo partly drawn) [Example M05431] | ∘∘ | > 2 µM | ++ (fold selectivity value of 10 to 100) |
| COc1ccc(C[C@@H]2C[C@@H](C(=O)NCc3ccc4c(c3)nnn4C)N(C(=O)C3NCCc4cc(OC)ccc43)C2)cc1 (stereo partly drawn) [Example M05441] | ∘∘∘ | < 0.2 µM | +++ (fold selectivity values greater than 100) |
| COc1ccc(C[C@@H]2C[C@@H](C(=O)NCc3ccc4c(c3)nnn4C)N(C(=O)C3NCCc4cc(OC)ccc43)C2)cc1 (stereo partly drawn) [Example M05442] | ∘∘∘ | 0.2 to 2 µM | +++ (fold selectivity values greater than 100) |
| COc1ccc(C[C@@H]2C[C@@H](C(=O)NCc3ccc4c(c3)nnn4C)N(C(=O)[C@H](N)CCC(=O)N3CCNC[C@H]3C)C2)cc1 [Example M05443] | ∘∘∘ | 0.2 to 2 µM | +++ (fold selectivity values greater than 100) |
| COc1ccc(C[C@@H]2C[C@@H](C(=O)NCc3ccc4c(c3)nnn4C)N(C(=O)[C@H]3CC(c4cncn4C)CN3)C2)cc1 (stereo partly drawn) [Example M05446] | ∘∘ | > 2 µM | ++ (fold selectivity value of 10 to 100) |
| COc1ccc(C[C@@H]2C[C@@H](C(=O)NCc3ccc4c(c3)c(C)nn4C)N(C(=O)[C@H](N)CCC(=O)N3CCCC3)C2)cc1 [Example M05447] | ∘∘∘ | 0.2 to 2 µM | +++ (fold selectivity values greater than 100) |
| COc1ccc(C[C@@H]2C[C@@H](C(=O)NCc3ccc4c(C)nn(C)c4c3)N(C(=O)[C@H](N)CCC(=O)N3CCCC3)C2)cc1 [Example M05448] | ∘∘∘ | 0.2 to 2 µM | +++ (fold selectivity values greater than 100) |
| COc1ccc(C[C@@H]2C[C@@H](C(=O)NCc3ccc4c(Cl)nn(C)c4c3)N(C(=O)[C@H](N)CCC(=O)N3CCCC3)C2)cc1 [Example M05449] | ∘∘∘ | < 0.2 µM | +++ (fold selectivity values greater than 100) |
| COc1ccc(C[C@@H]2C[C@@H](C(=O)NCc3ccc4c(c3)nnn4C)N(C(=O)[C@H](N)CCC(=O)N3CCCC3(C)C)C2)cc1 [Example M05450] | ∘∘∘ | < 0.2 µM | +++ (fold selectivity values greater than 100) |
| COc1ccc(C[C@@H]2C[C@@H](C(=O)NCc3ccc4c(c3)nnn4C)N(C(=O)[C@H](N)CCC(=O)N3CCNC(=O)C3)C2)cc1 [Example M05451] | ∘∘∘ | < 0.2 µM | +++ (fold selectivity values greater than 100) |
| COc1ccc(C[C@@H]2C[C@@H](C(=O)NCc3ccc4c(c3)nnn4C)N(C(=O)[C@H](N)CCc3ccccn3)C2)cc1 [Example M05453] | ∘∘∘ | < 0.2 µM | +++ (fold selectivity values greater than 100) |
| COc1ccc(C[C@@H]2C[C@@H](C(=O)NCc3ccc4c(c3)nnn4C)N(C(=O)[C@H]3CC(c4cn[nH]c4)CN3)C2)cc1 (stereo partly drawn) [Example M05454] | ∘∘ | > 2 µM | ++ (fold selectivity value of 10 to 100) |
| COc1ccc(C[C@@H]2C[C@@H](C(=O)NCc3ccc4c(c3)nnn4C)N(C(=O)[C@H](N)CCC(=O)N3CCC[C@@H]3C#N)C2)cc1 [Example M05458] | ∘∘∘ | < 0.2 µM | +++ (fold selectivity values greater than 100) |
| COc1ccc(C[C@@H]2C[C@@H](C(=O)NCc3ccc4c(c3)nnn4C)N(C(=O)[C@H]3CC(c4cnccn4)CN3)C2)cc1 (stereo partly drawn) [Example M05459] | ∘∘∘ | 0.2 to 2 µM | +++ (fold selectivity values greater than 100) |
| COc1ccc(C[C@@H]2C[C@@H](C(=O)NCc3ccc4c(c3)nnn4C)N(C(=O)[C@H](N)CCC(=O)N3C4CCC3C(=O)NC4)C2)cc1 (stereo partly drawn) [Example M05460] | ∘∘∘ | 0.2 to 2 µM | +++ (fold selectivity values greater than 100) |
| COc1ccc(C[C@@H]2C[C@@H](C(=O)NCc3ccc4c(c3)nnn4C)N(C(=O)[C@H](N)CCC(=O)N3CCCNCC3)C2)cc1 [Example M05461] | ∘∘∘ | < 0.2 µM | +++ (fold selectivity values greater than 100) |
| COc1ccc2c(c1)CCNC2C(=O)N1C[C@H](Cc2ccncc2)C[C@H]1C(=O)NCc1ccc2c(c1)nnn2C (stereo partly drawn) [Example M05462] | ∘∘∘ | 0.2 to 2 µM | +++ (fold selectivity values greater than 100) |
| COc1ccc2c(c1)CCNC2C(=O)N1C[C@H](Cc2ccncc2)C[C@H]1C(=O)NCc1ccc2c(c1)nnn2C (stereo partly drawn) [Example M05463] | ∘∘ | > 2 µM | ++ (fold selectivity value of 10 to 100) |
| COc1ccc(C[C@@H]2C[C@@H](C(=O)NCc3ccc4c(c3)nnn4C)N(C(=O)[C@H]3CC(c4c[nH]cn4)CN3)C2)cc1 (stereo partly drawn) [Example M05464] | ∘∘ | > 2 µM | ++ (fold selectivity value of 10 to 100) |
| COc1ccc(C[C@@H]2C[C@@H](C(=O)NCc3cc4ccncc4o3)N(C(=O)[C@H](N)CCC(=O)N3CCCC3)C2)cc1 [Example M05465] | ∘∘∘ | 0.2 to 2 µM | +++ (fold selectivity values greater than 100) |
| COc1ccc(C[C@@H]2C[C@@H](C(=O)NCc3ccc4c(c3)nnn4C)N(C(=O)C3NCCc4cc(Br)ccc43)C2)cc1 (stereo partly drawn) [Example M05470] | ∘∘∘ | < 0.2 µM | +++ (fold selectivity values greater than 100) |
| COc1ccc(C[C@@H]2C[C@@H](C(=O)NCc3ccc4c(c3)nnn4C)N(C(=O)C3NCCc4cc(Br)ccc43)C2)cc1 (stereo partly drawn) [Example M05471] | ∘∘ | > 2 µM | ++ (fold selectivity value of 10 to 100) |
| COc1ccc(C[C@@H]2C[C@@H](C(=O)NCc3ccc4c(c3)nnn4C)N(C(=O)[C@H]3C[C@@H](c4cnn(C)c4)CN3C)C2)cc1 [Example M05474, (2S,4R)-4-(4-Methoxy-benzyl)-1-[(2R,4S)-1-methyl-4-(1-methyl-1H-pyrazol-4-yl)-pyrrolidine-2-carbonyl]-pyrrolidine-2-carboxylic acid (1-methyl-1H-benzotriazol-5-ylmethyl)-amide] | ∘∘∘ | 0.2 to 2 µM | +++ (fold selectivity values greater than 100) |
| COc1ccc(C[C@@H]2C[C@@H](C(=O)NCc3ccc4c(c3)nnn4C)N(C(=O)[C@H]3C[C@@H](C(=O)N4CCCC4)CCN3)C2)cc1 [Example M05490] | ∘∘∘ | < 0.2 µM | +++ (fold selectivity values greater than 100) |
